Results published in patent US20250034498A1, “MICROFLUIDIC DEVICES” (Ecole Polytechnique Federale de Lausanne, priority 2021, published 2025).
Entries after “also recorded” stand apart in the source; their conditions may differ.

B1: Bone Morphogenetic Protein 4 (protein, UniProt P12644 293-408, looked up)
Bone morphogenetic protein 4: SPKHHSQRARKKNKNCRRHSLYVDFSDVGWNDWIVAPPGYQAFYCHGDCPFPLADHLNSTNHAIVQTLVNSVNSSIPKACCVPTELSAISMLYLDEYDKVVLKNYQEMVVEGCGCR
notes: dorsalizing morphogen

Tested on: neural tube organoids
Assay: dorsal-ventral patterning of neural tube organoids at the gradient window of the microfluidic device
Assay type: cell-based
Settings: for identity of neural tube organoid (PAX3/7 dorsal marker, OLIG2 ventral marker): D6 organoids exposed 18 hours; for spatial patterning of neural tube organoid (PAX3/7 dorsal marker, OLIG2 ventral marker): anti-parallel gradient 1.6 nM BMP4 (L)-500 nM SAG (R), 18 hours
Description: In the present example, the organoid of interest was cultured in a Matrigel™ drop for six days then harvested, and the organoid was suspended in Matrigel™ and loaded into the culture chamber 130 and placed at the gradient window 150 via the loading channel 170. A small drop of N2B27 medium was placed in each of the first and second medium chambers or reservoirs 110, 120 for humidification, and the chip was incubated in a 5% CO2 and 37° C. incubator for 5 minutes to allow the Matrigel™ to polymerise. After incubation, the first and second chambers 110, 120 were filled with N2B27 medium supplemented with 1.6 nM of BMP4 as a dorsal morphogen and 500 nM of SAG as a ventral morphogen respectively, and residual air in the device was removed from the first and second air outlets 140-1, 140-2 to allow the morphogen-supplemented media to diffuse across the gradient window 150. The device containing the organoid was incubated in a 5% CO2 and 37° C. incubator for 18 hours.
A neural tube organoid was placed in the gradient window of the device where a dorsal-ventral morphogen gradient has developed, using BMP4 as a dorsal morphogen and SAG as a ventral morphogen. PAX3/7 was used as a marker for dorsal fate neural tube cell and OLIG2 was used as a marker for ventral fate neural tube cell.
As described above, the neural tube organoids from D6 were introduced in the microfluidic device and exposed to different morphogen gradients for 18 hours. All scale bars are 100 μm.

Molecule | identity of neural tube organoid (PAX3/7 dorsal marker, OLIG2 ventral marker) (N2B27 (L)-500 nM SAG (R)) | spatial patterning of neural tube organoid (PAX3/7 dorsal marker, OLIG2 ventral marker) | identity of neural tube organoid (PAX3/7 dorsal marker, OLIG2 ventral marker) (1.6 nM BMP4 (L)-N2B27 (R))
CNC1CCC(N(Cc2cccc(-c3ccncc3)c2)C(=O)c2sc3ccccc3c2Cl)CC1 (stereo not shown) [SAG] | dominant ventral identity expressing OLIG2 | OLIG2 positive cells were biased towards the SAG source; also recorded: OLIG2 biased to right side | –
B1 | – | PAX3/7 positive cells were biased towards the BMP4 source; also recorded: PAX3/7 biased to the left side | dorsal identity expressing PAX3/7
